Source: patent US8765054B2, “Process for treatment of residual nucleic acids present on the surface of laboratory consumables” (EMD Millipore Corporation, priority 2010, dated 2014)

What was measured:
[1] = test system: DNA (E. coli, P. aeruginosa); assay: Residual free DNA on 1.5 ml polypropylene tubes after treatment, determined by PCR
Protocol: (§1) Several consumables consisting of 1.5 ml polypropylene tubes were contaminated in parallel with a known quantity of DNA, RNA or microorganisms. These consumables were then gamma-sterilized (doses from 0 to 60 kGy) or treated with ethylene oxide in gaseous phase. After sterilization, the presence of residual nucleic acids is determined by PCR (for DNA) and TMA (for RNA) and compared with an unsterilized control consumable.
(§2) Several consumables of the same type as those used in protocol 1 were contaminated with the same known quantity of DNA, RNA or microorganisms. These consumables were then treated by a treatment with hydrogen peroxide made in liquid solution (respectively 3% and 30% H2O2). The hydrogen peroxide is evaporated at the end of the process by virtue of a step of drying under vacuum at a temperature of 60° C. After treatment, the presence of residual nucleic acids was determined by PCR (for DNA) and TMA (for RNA) and compared with an untreated sample.

[2] = test system: RNA (P. acnes, P. aeruginosa); assay: Residual free RNA on 1.5 ml polypropylene tubes after treatment, determined by TMA; set-up: key to the marks not given beside the values
Protocol: as §1, §2

[3] = test system: Germs (E. coli, P. aeruginosa); assay: Residual DNA contained in microorganisms (germs) on tubes after treatment, determined by PCR; format: cell-based
Protocol: as §1, §2
(§3) Several consumables of the same type as those used in protocol 1 were contaminated with the same known quantity of DNA, RNA or microorganisms. A proportion of those consumables was then treated according to the invention with gaseous ethylene oxide followed by the 3% or 30% hydrogen peroxide. A further proportion was treated with gamma radiation instead of with the gaseous ethylene oxide then with hydrogen peroxide. In both cases, the hydrogen peroxide was evaporated by virtue of a vacuum drying step at a temperature of 60° C. After treatment, the presence of residual nucleic acids was determined by PCR (for DNA) and TMA (for RNA) and compared with an untreated sample.

[4] = test system: Germs (P. acnes, P. aeruginosa); assay: Residual RNA contained in microorganisms (germs) on tubes after treatment, determined by TMA; format: cell-based
Protocol: as §1, §2, §3

[5] = Protocol 2, liquid H2O2, minimum time of action 40 min at 60° C.

SMILES | Effectiveness of the residual nucleic acid treatment, DNA (PCR) ([1]; Protocol 1, free DNA, E. coli, P. aeruginosa, vs unsterilized control) | Effectiveness of the residual nucleic acid treatment, RNA (TMA) ([2]; Protocol 1, free RNA, P. acnes, P. aeruginosa, vs unsterilized control) | Effectiveness of the residual nucleic acid treatment, Germs (PCR) ([3]; Protocol 1, DNA in microorganisms, E. coli, P. aeruginosa) | Effectiveness of the residual nucleic acid treatment, Germs (TMA) ([4]; Protocol 1, RNA in microorganisms, P. acnes, P. aeruginosa) | Effectiveness of the residual nucleic acid treatment, DNA (PCR) [1, 5] | Effectiveness of the residual nucleic acid treatment, RNA (TMA) [2, 5] | Effectiveness of the residual nucleic acid treatment, Germs (PCR) [3, 5] | Effectiveness of the residual nucleic acid treatment, Germs (TMA) [4, 5]
C1CO1 [EO, ethylene oxide] | + | +++ | + | − |  |  |  | 
OO [H2O2 3%, hydrogen peroxide] |  |  |  |  | ++ | ++ | − | −
OO [H2O2 30%, hydrogen peroxide] |  |  |  |  | +++ | +++ | − | −
